Data as given in patent US11472766B2, “Lipid nanoparticle composition” (Suzhou Abogen Biosciences Co., Ltd., priority 2020, dated 2022).

Legend:
[1] = Encapsulation efficiency of lipid nanoparticles (Quant-it Ribogreen RNA quantification assay); format: physicochemical; settings: LNP encapsulating hEPO mRNA
Procedure: (§1) Briefly, a cationic lipid provided herein, DSPC, cholesterol, and PEG-lipid were solubilized in ethanol at a molar ratio of 50:10:38.5:1.5, and mRNA were diluted in 10 to 50 mM citrate buffer, pH=4. The LNPs were prepared at a total lipid to mRNA weight ratio of approximately 10:1 to 30:1 by mixing the ethanolic lipid solution with the aqueous mRNA solution at a volume ratio of 1:3 using a microfluidic apparatus, total flow rate ranging from 9-30 mL/min. Ethanol were thereby removed and replaced by DPBS using dialysis. Finally, the lipid nanoparticles were filtered through a 0.2 μm sterile filter.
(§2) Lipid nanoparticle size were determined by dynamic light scattering using a Malvern Zetasizer Nano ZS (Malvern UK) using a 173° backscatter detection mode. The encapsulation efficiency of lipid nanoparticles were determined using a Quant-it Ribogreen RNA quantification assay kit (Thermo Fisher Scientific, UK) according to the manufacturer's instructions.

[2] = test system: human erythropoietin (hEPO) mRNA; assay: Animal study: hEPO expression after tail vein injection of LNPs encapsulating hEPO mRNA (serum ELISA); format: in vivo; settings: hEPO level, female ICR mice, 0.5 mg/kg, 6 hours post administration; for Expression at 6 h (μg/ml): class symbols, Table 3; for Expression at 6 h: Table 2
Procedure: Lipid nanoparticles comprising compounds 1-10 encapsulating human erythropoietin (hEPO) mRNA were systemically administered to 6-8 week old female ICR mice (Xipuer-Bikai, Shanghai) at 0.5 mg/kg dose by tail vein injection and mice blood were sampled at specific time points (e.g., 6 hours) post administration. In addition to the aforementioned tested groups, lipid nanoparticles comprising dilinoleylmethyl-4-dimethylaminobutyrate (DLin-MC3-DMA, usually abbreviated to MC3) encapsulating hEPO mRNA were similarly administered at the same dose to age and gender comparative groups of mice as a positive control.
Mice were euthanized by CO2 overdoses after the last sampling time point. Serum were separated from total blood by centrifugation at 5000 g for 10 minutes at 4° C., snap-frozen and stored at −80° C. for analysis. ELSA assay were carried out using a commercial kit (DEP00, R&D systems) according to manufacturer's instructions.
Characteristics of tested lipid nanoparticles, including hEPO expression levels (μg/ml) measured from the tested group are listed the tables below and plotted in FIG. 2.

[3] = Lipid nanoparticle size by dynamic light scattering (Malvern Zetasizer Nano ZS); format: physicochemical; settings: LNP: cationic lipid/DSPC/cholesterol/PEG-lipid 50:10:38.5:1.5, hEPO mRNA
Procedure: as §1, §2

[4] = Apparent pKa of LNP formulations (TNS fluorescence assay); settings: LNP cationic lipid/DSPC/cholesterol/DMG-PEG 50/10/38.5/1.5 mol %

SMILES | Encapsulation Efficiency ([1]; Table 3) | polydispersity ([3]; Table 3) | size nm ([3]; Table 3) | Apparant Pka ([4]; Table 3) | Expression at 6 h (μg/ml) [2] | Encapsulation Efficiency ([1]; Table 2) | Expression at 6 h [2] | polydispersity ([3]; Table 2) | size nm ([3]; Table 2) | Apparant Pka ([4]; Table 2)
CCCCCCCCC(CCCCCC)COC(=O)CCCCCN(CCCCCC(=O)OCC(CCCCCC)CCCCCCCC)CCN(CCCO)C1CCC1 (stereo not shown) [Compound 28] | 96.5% | 0.002 | 79.82 nm | 6.529 | A (≥2) |  |  |  |  | 
CCCCCCCCC(CCCCCC)COC(=O)CCCCCC(CCCCCC(=O)OCC(CCCCCC)CCCCCCCC)CCCN(C)CCO (stereo not shown) [Compound 18] | 100.16% | 0.15 | 71.85 nm | 6.327 | C (≥0.1 and <1) |  |  |  |  | 
CCCCCCCCC(CCCCCC)COC(=O)CCCCCN(CCCCCC(=O)OCC(CCCCCC)CCCCCCCC)CCN(CCCC)C1CCC(O)CC1 (stereo not shown) [Compound 58] | 90.7% | 0.067 | 74.68 nm | 6.364 | A (≥2) |  |  |  |  | 
CCCCCCCCC(CCCCCC)COC(=O)CCCCCN(CCCCCC(=O)OCC(CCCCCC)CCCCCCCC)C(=O)CCN(CCO)C1CCC1 (stereo not shown) [Compound 12] | 99.80% | 0.015 | 75.86 nm | 5.801 | D (<0.1) |  |  |  |  | 
CCCCCCCCC(CCCCCC)COC(=O)CCCCCN(CCCCCC(=O)OCC(CCCCCC)CCCCCCCC)CCNCCO (stereo not shown) [Compound A] |  |  |  |  |  | 100.0% | 0.01 µg/mL | 0.108 | 58.5 nm | 6.96
CCCCCC/C=C\COC(=O)CCCCCN(CCCC(=O)OC(CCCCCCC)CCCCCCC)CCN(CCO)C1CCC1 [Compound 46] | 93.8% | 0.073 | 110.4 nm | 6.307 | C (≥0.1 and <1) |  |  |  |  | 
CCCCCCCCC(CCCCCC)COC(=O)CCCCCN(CCCCCC(=O)OCC(CCCCCC)CCCCCCCC)CCN(CCC)C1CCC(O)CC1 (stereo not shown) [Compound 56] | 96.4% | 0.07 | 85.46 nm | 6.466 | A (≥2) |  |  |  |  | 
CCCCCCCCC(CCCCCC)COC(=O)CCCCCN(CCCCCC(=O)OCC(CCCCCC)CCCCCCCC)CCN(CCO)c1ccccc1 (stereo not shown) [Compound 7] |  |  |  |  |  | 47.0% | 0.00 µg/mL | 0.110 | 149.1 nm | 5.39
CCCCCCCCC(CCCCCCCC)COC(=O)CCCCCN(CCCCCC(=O)OCC(CCCCCCCC)CCCCCCCC)CCN(CCCCC)C1CCC(O)CC1 (stereo not shown) [Compound 74] | 93.2% | 0.076 | 54.58 nm | 6.2 | B (≥1 and <2) |  |  |  |  | 
CCCCCCCCC(CCCCCC)CC(=O)COCCCCN(CCCCCOC(=O)CC(CCCCCC)CCCCCCCC)CCN(CCO)C1CC1 (stereo not shown) [Compound 24] | 95.4% | 0.077 | 64.96 nm | 6.087 | C (≥0.1 and <1) |  |  |  |  | 
CCCCCCCCC(CCCCCC)COC(=O)CCCCCC(CCCCCC(=O)OCC(CCCCCC)CCCCCCCC)CN(C)CCO (stereo not shown) [Compound 14] | 94.9% | 0.172 | 60.13 nm | 9.356 | C (≥0.1 and <1) |  |  |  |  | 
CCCCCCCCC(CCCCCCCC)COC(=O)CCCCCN(CCCCCC(=O)OCC(CCCCCCCC)CCCCCCCC)CCN(CCO)C1CC(F)(F)C1 [Compound 79] | 89.2% | 0.154 | 52.19 nm | 5.735 | C (≥0.1 and <1) |  |  |  |  | 
CCCCCCCCC(CCCCCC)COC(=O)CCCCCN(CCCCCC(=O)OCC(CCCCCC)CCCCCCCC)CCN(CCO)C1CCC1 (stereo not shown) [Compound 35] | 94.8% | 0.086 | 60.58 nm | 5.945 | C (≥0.1 and <1) |  |  |  |  | 
CCCCCCCCC(CCCCCCCC)COC(=O)CCCCCN(CCCCCC(=O)OCC(CCCCCCCC)CCCCCCCC)CCN(CCC)C1CCC(O)CC1 (stereo not shown) [Compound 70] | 84.3% | 0.034 | 77.54 nm | 6.381 | A (≥2) |  |  |  |  | 
CCCCCCCCC(CCCCCC)COC(=O)CCCCCN(CCCCCC(=O)OCC(CCCCCC)CCCCCCCC)CCN(CCO)CCCCCC (stereo not shown) [Compound D] |  |  |  |  |  | 95.5% | 1.02 µg/mL | 0.118 | 59.2 nm | 6.28
CCCCCCCCCCCOC(=O)CCCCCN(CCCCCC(=O)OCC(CCCCCCCC)CCCCCCCC)CCN(CCO)C1CCCCCC1 [Compound 84] | 93.2% | 0.083 | 65.55 nm | 6.064 | B (≥1 and <2) |  |  |  |  | 
CCCCCCCCC(CCCCCCCC)COC(=O)CCCCCN(CCCCCC(=O)OCC(CCCCCCCC)CCCCCCCC)CCN(CCCC)C1CCC(O)CC1 (stereo not shown) [Compound 67] | 79.3% | 0.05 | 64.75 nm | 6.341 | B (≥1 and <2) |  |  |  |  | 
CCCCCCCCC(CCCCCC)COC(=O)CCCCCN(CCCCCC(=O)OCC(CCCCCC)CCCCCCCC)CCN(C)C1CC(O)C1 (stereo not shown) [Compound 59] | 97.7% | 0.008 | 93.24 nm | 6.682 | B (≥1 and <2) |  |  |  |  | 

Continued, in another order:

Encapsulation Efficiency ([1]; Table 3) | polydispersity ([3]; Table 3) | size nm ([3]; Table 3) | Apparant Pka ([4]; Table 3) | SMILES | Expression at 6 h (μg/ml) [2] | Encapsulation Efficiency ([1]; Table 2) | Expression at 6 h [2] | polydispersity ([3]; Table 2) | size nm ([3]; Table 2) | Apparant Pka ([4]; Table 2)
95.29% | 0.029 | 60.84 nm | 6.751 | CCCCCCCCC(CCCCCCCC)CNC(=O)CCCCCN(CCCCCC(=O)NCC(CCCCCCCC)CCCCCCCC)CCN(CCO)C1CCCCC1 [Compound 137] | A (≥2) |  |  |  |  | 
95.2% | 0.04 | 66.94 nm | 6.331 | CCCCCCCCC(CCCCCC)COC(=O)CCCCCN(CCCCCC(=O)OCC(CCCCCC)CCCCCCCC)CCN(C1CCCCC1)C1CC(O)C1 (stereo not shown) [Compound 92] | B (≥1 and <2) |  |  |  |  | 
93.5% | 0.06 | 66.33 nm | 6.918 | CCCCCCCCOC(CCCCCN(CCCCCC(=O)NCC(CCCCCC)CCCCCC)CCN(CCO)C1CCC1)OCCCCCCCC [Compound 150] | A (≥2) |  |  |  |  | 
97.6% | 0.06 | 73.52 nm | 6.633 | CCCCCCCCC(CCCCCC)CNC(=O)CCCCCN(CCCCCC(=O)OCC(CCCCCC)CCCCCCCC)CCN(CCO)C1CC1 (stereo not shown) [Compound 109] | A (≥2) |  |  |  |  | 
98.3% | 0.041 | 93.74 nm | 6.491 | CCCCCCCCC(CCCCCC)COC(=O)CCCCCN(CCCCCC(=O)OCC(CCCCCC)CCCCCCCC)CCN(C1CCC1)C1CCC(O)CC1 (stereo not shown) [Compound 93] | A (≥2) |  |  |  |  | 
89.1% | 0.036 | 71.93 nm | 6.766 | CCCCCCC(CCCCCC)CNC(=O)CCCCCN(CCCCCC(=O)OCC(CCCCCC)CCCCCC)CCN(CCO)C1CCCCCC1 [Compound 141] | A (≥2) |  |  |  |  | 
92.64% | 0.052 | 67.31 nm | 6.518 | CCCCCCCCC(CCCCCCCC)CNC(=O)CCCCCN(CCCCCC(=O)OCC(CCCCCCCC)CCCCCCCC)CCN(CCO)C1CCCCCC1 [Compound 139] | A (≥2) |  |  |  |  | 
89.96% | 0.022 | 70.93 nm | 6.184 | CCCCCCCCC(CCCCCCCC)COC(=O)CCOCCN(CCOCCC(=O)OCC(CCCCCCCC)CCCCCCCC)CCN(CCO)C1CCCCC1 [Compound 104] | A (≥2) |  |  |  |  | 
